Source: ChEMBL document CHEMBL3885881, “DrugMatrix”

Species: Rattus norvegicus
Type: toxicity, organism-based, Sprague-Dawley
Settings: in vivo, po, 24 h, route oral GAVAGE, time 1 day, […]; for ABSOLUTE BASOPHIL / ABSOLUTE EOSINOPHIL / ABSOLUTE LYMPHOCYTE / ABSOLUTE MONOCYTE / BASOPHIL / EOSINOPHIL / ERYTHROCYTE COUNT / HEMATOCRIT / HEMOGLOBIN / LEUKOCYTE COUNT / LYMPHOCYTE / MEAN CORPUSCULAR HEMOGLOBIN / MEAN CORPUSCULAR HEMOGLOBIN CONCENTRATION / MEAN CORPUSCULAR VOLUME / MONOCYTE / NEUTROPHIL / PLATELET COUNT: tissue Blood; for ALANINE AMINOTRANSFERASE / ALBUMIN / ALKALINE PHOSPHATASE / ASPARTATE AMINOTRANSFERASE / BLOOD UREA NITROGEN / CARBON DIOXIDE / CHLORIDE / CHOLESTEROL / CREATINE PHOSPHOKINASE / CREATININE / GLUCOSE / LACTATE DEHYDROGENASE / LIPASE / PHOSPHORUS / POTASSIUM / SODIUM / TOTAL BILIRUBIN / TOTAL PROTEIN / URIC ACID: tissue Plasma
[1] = 0 mg/kg, vehicle control, dose level Control

Description: DrugMatrix - Regimen: Single

C=CCN [ALLYLAMINE]
ABSOLUTE BASOPHIL [1]: 46.7 cells/µL | ABSOLUTE EOSINOPHIL [1]: 130 cells/µL | ABSOLUTE LYMPHOCYTE [1]: 8720 cells/µL | ABSOLUTE MONOCYTE [1]: 140 cells/µL | BASOPHIL [1]: 0.43% | EOSINOPHIL [1]: 1.33% | ERYTHROCYTE COUNT [1]: 6.45 x10E6/uL | HEMATOCRIT [1]: 42.2% | HEMOGLOBIN [1]: 13.33 G/DL | LEUKOCYTE COUNT [1]: 10.59 x10E3/uL | LYMPHOCYTE [1]: 82.13% | MEAN CORPUSCULAR HEMOGLOBIN [1]: 20.67 pg | MEAN CORPUSCULAR HEMOGLOBIN CONCENTRATION [1]: 31.6 G/DL | MEAN CORPUSCULAR VOLUME [1]: 65.4 fL | MONOCYTE [1]: 1.37% | NEUTROPHIL [1]: 14.3% | PLATELET COUNT [1]: 1048.67 x10E3/uL | ALANINE AMINOTRANSFERASE [1]: 44 u/L | ALBUMIN [1]: 3.93 G/DL | ALKALINE PHOSPHATASE [1]: 551.33 u/L | ASPARTATE AMINOTRANSFERASE [1]: 97 u/L | BLOOD UREA NITROGEN [1]: 13.5 mg/dL | CARBON DIOXIDE [1]: 37.33 mmol/L | CHLORIDE [1]: 102.33 MEQ/L | CHOLESTEROL [1]: 83 mg/dL | CREATINE PHOSPHOKINASE [1]: 365.33 u/L | CREATININE [1]: 0.4 mg/dL | GLUCOSE [1]: 189 mg/dL | LACTATE DEHYDROGENASE [1]: 170.33 u/L | LIPASE [1]: 10.67 u/L | PHOSPHORUS [1]: 11.53 mg/dL | POTASSIUM [1]: 5.63 MEQ/L | SODIUM [1]: 144.33 MEQ/L | TOTAL BILIRUBIN [1]: 0.4 mg/dL | TOTAL PROTEIN [1]: 6.27 G/DL | URIC ACID [1]: 0.87 mg/dL | ABSOLUTE BASOPHIL (40 mg/kg, dose level Low): 26.7 cells/µL | ABSOLUTE EOSINOPHIL (40 mg/kg, dose level Low): 160 cells/µL | ABSOLUTE LYMPHOCYTE (40 mg/kg, dose level Low): 6420 cells/µL | ABSOLUTE MONOCYTE (40 mg/kg, dose level Low): 190 cells/µL | BASOPHIL (40 mg/kg, dose level Low): 0.3% | EOSINOPHIL (40 mg/kg, dose level Low): 1.9% | ERYTHROCYTE COUNT (40 mg/kg, dose level Low): 7.01 x10E6/uL | HEMATOCRIT (40 mg/kg, dose level Low): 45.2% | HEMOGLOBIN (40 mg/kg, dose level Low): 14.3 G/DL | LEUKOCYTE COUNT (40 mg/kg, dose level Low): 8.6 x10E3/uL | LYMPHOCYTE (40 mg/kg, dose level Low): 74.17% | MEAN CORPUSCULAR HEMOGLOBIN (40 mg/kg, dose level Low): 20.43 pg | MEAN CORPUSCULAR HEMOGLOBIN CONCENTRATION (40 mg/kg, dose level Low): 31.67 G/DL | MEAN CORPUSCULAR VOLUME (40 mg/kg, dose level Low): 64.6 fL | MONOCYTE (40 mg/kg, dose level Low): 2.23% | NEUTROPHIL (40 mg/kg, dose level Low): 20.97% | PLATELET COUNT (40 mg/kg, dose level Low): 1314 x10E3/uL | ALANINE AMINOTRANSFERASE (40 mg/kg, dose level Low): 38 u/L | ALBUMIN (40 mg/kg, dose level Low): 3.9 G/DL | ALKALINE PHOSPHATASE (40 mg/kg, dose level Low): 499 u/L | ASPARTATE AMINOTRANSFERASE (40 mg/kg, dose level Low): 72.33 u/L | BLOOD UREA NITROGEN (40 mg/kg, dose level Low): 10 mg/dL | CARBON DIOXIDE (40 mg/kg, dose level Low): 38.67 mmol/L | CHLORIDE (40 mg/kg, dose level Low): 104 MEQ/L | CHOLESTEROL (40 mg/kg, dose level Low): 72.67 mg/dL | CREATINE PHOSPHOKINASE (40 mg/kg, dose level Low): 242.67 u/L | CREATININE (40 mg/kg, dose level Low): 0.47 mg/dL | GLUCOSE (40 mg/kg, dose level Low): 171.33 mg/dL | LACTATE DEHYDROGENASE (40 mg/kg, dose level Low): 92.33 u/L | LIPASE (40 mg/kg, dose level Low): 15.33 u/L | PHOSPHORUS (40 mg/kg, dose level Low): 11.83 mg/dL | POTASSIUM (40 mg/kg, dose level Low): 5.73 MEQ/L | SODIUM (40 mg/kg, dose level Low): 145 MEQ/L | TOTAL BILIRUBIN (40 mg/kg, dose level Low): 0.3 mg/dL | TOTAL PROTEIN (40 mg/kg, dose level Low): 6.27 G/DL | URIC ACID (40 mg/kg, dose level Low): 1.3 mg/dL
